Experimental data reported in patent US6706663B2, “Herbicidal 3-heterocyclic substituted benzisothiazole and benzisoxazole compounds” (Wyeth, priority 2000, dated 2004).

Tests used:
[1] = test system: IPOHE (Ipomoea hederacea); assay: Preemergence herbicidal evaluation; assay type: in vivo, (L.) Jacq.; conditions: preemergence, rated 4-5 weeks after treatment
ORYSAT (Rice, Tebonnet) [2] = assay: Preemergence herbicidal evaluation; assay type: in vivo, Oryza sativa, (L.) Tebonnet; conditions: preemergence, rated 4-5 weeks after treatment
[3] = test system: GLXMAW (Soybean, Williams); assay: Postemergence herbicidal evaluation; assay type: in vivo, Glycine max, (L.) Merr. cv Williams
Procedure, shortened: (§1)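 Seedlings grown for about two weeks were sprayed postemergence and then kept under standard greenhouse care. Injury was rated visually 4–5 weeks after treatment on a 0–9 scale against untreated controls, and ratings from repeat tests were averaged.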

SETVI (Setaria viridis) [4] = assay: Postemergence herbicidal evaluation; assay type: in vivo, (L.) Beau
Procedure, shortened: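 Seedlings about two weeks old were sprayed with compound in 50/50 acetone/water plus 0.5% TWEEN 20, at the equivalent of about 0.0040 to 1.000 kg/ha. Plants were kept in a greenhouse and visually rated 0-9 against a control four to five weeks after treatment. Repeat tests were averaged.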

ZEAMX (Corn, Field) = assay: Postemergence herbicidal evaluation; assay type: in vivo, Zea mays, L.
Procedure, shortened: as §1

[5] = test system: ABUTH (Abutilon theophrasti); assay: Postemergence herbicidal evaluation; assay type: in vivo, Medic.
Procedure, shortened: as §1

[6] = test system: ECHORC (Echinochloa oryzoides); assay: Flooded paddy, preemergence weed control; assay type: in vivo, Echinochloa oryzoides (Ard.) Fritsch.; conditions: rated 3-4 weeks after treatment, 0-9 rating scale
Procedure, shortened: (§2)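 In this preemergence paddy assay, weed seeds or organs are sown at up to 0.5 cm in silt loam and covered by 1.5–3 cm of water for the full test period. After treatment the pots are kept in a greenhouse, and herbicidal effect is rated 0-9 visually against a control.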

CYPIR (Cyperus iria) = assay: Flooded paddy, preemergence weed control; assay type: in vivo; conditions: rated 3-4 weeks after treatment, 0-9 rating scale
Procedure, shortened: as §2

[7] = test system: ECHCG (Echinochloa crus-galli); assay: Preemergence herbicidal evaluation; assay type: in vivo, (L.) Beau; conditions: preemergence, rated 4-5 weeks after treatment
Procedure, shortened: (§3)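 Seeds mixed with potting soil were planted atop about one inch of soil, then sprayed with test compound in aqueous acetone. Cups were kept in the greenhouse and rated visually 4–5 weeks after treatment on a 0–9 scale against untreated control.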

SETVI (Setaria viridis) [8] = assay: Preemergence herbicidal evaluation; assay type: in vivo, (L.) Beau; conditions: preemergence, rated 4-5 weeks after treatment
Procedure, shortened: as §3

ORYSAT (Rice, Tebonnet) [9] = assay: Postemergence herbicidal evaluation; assay type: in vivo, Oryza sativa, (L.) Tebonnet
Procedure, shortened: as §1

[10] = test system: ECHCG (Echinochloa crus-galli); assay: Postemergence herbicidal evaluation; assay type: in vivo, (L.) Beau
Procedure, shortened: as §1

GALAP (Galium aparine) = assay: Postemergence herbicidal evaluation; assay type: in vivo
Procedure, shortened: as §1

[11] = test system: IPOHE (Ipomoea hederacea); assay: Postemergence herbicidal evaluation; assay type: in vivo, (L.) Jacq.
Procedure, shortened: as §1

[12] = test system: MOOVA (Monochoria vaginalis); assay: Flooded paddy, preemergence weed control; assay type: in vivo, Presl.; conditions: rated 3-4 weeks after treatment, 0-9 rating scale
Procedure, shortened: as §2

[13] = test system: AMBEL (Ambrosia artemisifolia); assay: Preemergence herbicidal evaluation; assay type: in vivo, L.; conditions: preemergence, rated 4-5 weeks after treatment
Procedure, shortened: as §3

[14] = test system: CASOB (Cassia obtusifolia); assay: Preemergence herbicidal evaluation; assay type: in vivo, L.; conditions: preemergence, rated 4-5 weeks after treatment
Procedure, shortened: as §3

[15] = test system: CHEAL (Chenopodium album); assay: Preemergence herbicidal evaluation; assay type: in vivo, L.; conditions: preemergence, rated 4-5 weeks after treatment
Procedure, shortened: as §3

1-methyl-3-[3-(1,3-oxathiolan-2-yl)-1,2-benzisothiazol-5-yl]-6-(trifluoromethyl)uracil S′,S′-dioxide [Compound 32]
6.5: ECHCG preemergence herbicidal rating ([7]; Rate 0.0620 kg/ha) | CASOB preemergence herbicidal rating ([14]; Rate 0.0620 kg/ha)
5.5: Postemergence herbicidal rating, ZEAMX (ZEAMX (Corn, Field); rate 0.0320 kg/ha) | Postemergence herbicidal rating, ZEAMX (ZEAMX (Corn, Field); rate 0.0620 kg/ha) | Postemergence herbicidal rating, ORYSAT (ORYSAT (Rice, Tebonnet) [9]; rate 0.0620 kg/ha)
4.0: herbicidal rating, CYPIR (CYPIR (Cyperus iria); rate 0.0320 kg/ha)
8.5: ORYSAT preemergence herbicidal rating (ORYSAT (Rice, Tebonnet) [2]; Rate 0.2500 kg/ha)
6.0: Postemergence herbicidal rating, SETVI (SETVI (Setaria viridis) [4]; rate 0.0620 kg/ha) | Postemergence herbicidal rating, GALAP (GALAP (Galium aparine); rate 0.0620 kg/ha) | herbicidal rating, MOOVA ([12]; rate 0.0320 kg/ha)
8.0: Postemergence herbicidal rating, GLXMAW ([3]; rate 0.0320 kg/ha) | CASOB preemergence herbicidal rating ([14]; Rate 0.1250 kg/ha)
7.0: herbicidal rating, CYPIR (CYPIR (Cyperus iria); rate 0.1250 kg/ha)
2.0: Postemergence herbicidal rating, GALAP (GALAP (Galium aparine); rate 0.0320 kg/ha)
3.0: Postemergence herbicidal rating, SETVI (SETVI (Setaria viridis) [4]; rate 0.0320 kg/ha) | Postemergence herbicidal rating, ECHCG ([10]; rate 0.0320 kg/ha)
0.0: herbicidal rating, ECHORC ([6]; rate 0.0320 kg/ha) | herbicidal rating, ECHORC ([6]; rate 0.1250 kg/ha)
9.0: IPOHE preemergence herbicidal rating ([1]; Rate 0.0620 kg/ha) | IPOHE preemergence herbicidal rating ([1]; Rate 0.1250 kg/ha) | IPOHE preemergence herbicidal rating ([1]; Rate 0.2500 kg/ha) | Postemergence herbicidal rating, GLXMAW ([3]; rate 0.0620 kg/ha) | Postemergence herbicidal rating, ABUTH ([5]; rate 0.0320 kg/ha) | Postemergence herbicidal rating, ABUTH ([5]; rate 0.0620 kg/ha) | ECHCG preemergence herbicidal rating ([7]; Rate 0.1250 kg/ha) | ECHCG preemergence herbicidal rating ([7]; Rate 0.2500 kg/ha) | SETVI preemergence herbicidal rating (SETVI (Setaria viridis) [8]; Rate 0.0620 kg/ha) | SETVI preemergence herbicidal rating (SETVI (Setaria viridis) [8]; Rate 0.1250 kg/ha) | SETVI preemergence herbicidal rating (SETVI (Setaria viridis) [8]; Rate 0.2500 kg/ha) | Postemergence herbicidal rating, IPOHE ([11]; rate 0.0320 kg/ha) | Postemergence herbicidal rating, IPOHE ([11]; rate 0.0620 kg/ha) | herbicidal rating, MOOVA ([12]; rate 0.1250 kg/ha) | AMBEL preemergence herbicidal rating ([13]; Rate 0.0620 kg/ha) | AMBEL preemergence herbicidal rating ([13]; Rate 0.1250 kg/ha) | AMBEL preemergence herbicidal rating ([13]; Rate 0.2500 kg/ha) | CASOB preemergence herbicidal rating ([14]; Rate 0.2500 kg/ha) | CHEAL preemergence herbicidal rating ([15]; Rate 0.0620 kg/ha) | CHEAL preemergence herbicidal rating ([15]; Rate 0.1250 kg/ha) | CHEAL preemergence herbicidal rating ([15]; Rate 0.2500 kg/ha)
7.5: ORYSAT preemergence herbicidal rating (ORYSAT (Rice, Tebonnet) [2]; Rate 0.1250 kg/ha)
5.0: ORYSAT preemergence herbicidal rating (ORYSAT (Rice, Tebonnet) [2]; Rate 0.0620 kg/ha) | Postemergence herbicidal rating, ORYSAT (ORYSAT (Rice, Tebonnet) [9]; rate 0.0320 kg/ha) | Postemergence herbicidal rating, ECHCG ([10]; rate 0.0620 kg/ha)

Cn1c(C(F)(F)F)cc(=O)n(-c2ccc3snc(C(SCCO)SCCO)c3c2)c1=O [Compound 33, 1,2-benzisothiazole-3-carboxaldehyde, 5-[3,6-dihydro-3-methyl-2,6-dioxo-4-(trifluoromethyl)-1(2H)-pyrimidinyl]-, 3-[bis(2-hydroxyethyl)dithioacetal]]
4.0: Postemergence herbicidal rating, SETVI (SETVI (Setaria viridis) [4]; rate 0.0620 kg/ha) | Postemergence herbicidal rating, ORYSAT (ORYSAT (Rice, Tebonnet) [9]; rate 0.0320 kg/ha) | herbicidal rating, MOOVA ([12]; rate 0.1250 kg/ha) | AMBEL preemergence herbicidal rating ([13]; Rate 0.1250 kg/ha) | CHEAL preemergence herbicidal rating ([15]; Rate 0.0620 kg/ha)
0.0: IPOHE preemergence herbicidal rating ([1]; Rate 0.0620 kg/ha) | ORYSAT preemergence herbicidal rating (ORYSAT (Rice, Tebonnet) [2]; Rate 0.0620 kg/ha) | herbicidal rating, ECHORC ([6]; rate 0.0320 kg/ha) | herbicidal rating, CYPIR (CYPIR (Cyperus iria); rate 0.0320 kg/ha) | ECHCG preemergence herbicidal rating ([7]; Rate 0.0620 kg/ha) | ECHCG preemergence herbicidal rating ([7]; Rate 0.1250 kg/ha) | SETVI preemergence herbicidal rating (SETVI (Setaria viridis) [8]; Rate 0.0620 kg/ha) | SETVI preemergence herbicidal rating (SETVI (Setaria viridis) [8]; Rate 0.1250 kg/ha) | Postemergence herbicidal rating, GALAP (GALAP (Galium aparine); rate 0.0320 kg/ha) | herbicidal rating, MOOVA ([12]; rate 0.0320 kg/ha) | CASOB preemergence herbicidal rating ([14]; Rate 0.0620 kg/ha) | CASOB preemergence herbicidal rating ([14]; Rate 0.1250 kg/ha) | CASOB preemergence herbicidal rating ([14]; Rate 0.2500 kg/ha)
2.0: herbicidal rating, ECHORC ([6]; rate 0.1250 kg/ha) | AMBEL preemergence herbicidal rating ([13]; Rate 0.0620 kg/ha)
3.0: ORYSAT preemergence herbicidal rating (ORYSAT (Rice, Tebonnet) [2]; Rate 0.1250 kg/ha) | herbicidal rating, CYPIR (CYPIR (Cyperus iria); rate 0.1250 kg/ha) | Postemergence herbicidal rating, ECHCG ([10]; rate 0.0620 kg/ha) | Postemergence herbicidal rating, GALAP (GALAP (Galium aparine); rate 0.0620 kg/ha)
7.0: Postemergence herbicidal rating, IPOHE ([11]; rate 0.0320 kg/ha) | CHEAL preemergence herbicidal rating ([15]; Rate 0.1250 kg/ha)
9.0: Postemergence herbicidal rating, ABUTH ([5]; rate 0.0320 kg/ha) | Postemergence herbicidal rating, ABUTH ([5]; rate 0.0620 kg/ha) | Postemergence herbicidal rating, IPOHE ([11]; rate 0.0620 kg/ha) | CHEAL preemergence herbicidal rating ([15]; Rate 0.2500 kg/ha)
6.0: ORYSAT preemergence herbicidal rating (ORYSAT (Rice, Tebonnet) [2]; Rate 0.2500 kg/ha) | SETVI preemergence herbicidal rating (SETVI (Setaria viridis) [8]; Rate 0.2500 kg/ha)
8.0: AMBEL preemergence herbicidal rating ([13]; Rate 0.2500 kg/ha)
5.5: Postemergence herbicidal rating, GLXMAW ([3]; rate 0.0620 kg/ha) | Postemergence herbicidal rating, ZEAMX (ZEAMX (Corn, Field); rate 0.0620 kg/ha)
5.0: IPOHE preemergence herbicidal rating ([1]; Rate 0.1250 kg/ha) | IPOHE preemergence herbicidal rating ([1]; Rate 0.2500 kg/ha) | Postemergence herbicidal rating, GLXMAW ([3]; rate 0.0320 kg/ha) | Postemergence herbicidal rating, ZEAMX (ZEAMX (Corn, Field); rate 0.0320 kg/ha) | ECHCG preemergence herbicidal rating ([7]; Rate 0.2500 kg/ha) | Postemergence herbicidal rating, ORYSAT (ORYSAT (Rice, Tebonnet) [9]; rate 0.0620 kg/ha)
1.0: Postemergence herbicidal rating, SETVI (SETVI (Setaria viridis) [4]; rate 0.0320 kg/ha) | Postemergence herbicidal rating, ECHCG ([10]; rate 0.0320 kg/ha)
